Holding throughout (format): in vivo, Balb/cj mice
The test system of assay [1] is IgE specific to house dust mites and MCP-1. Put plainly: Humoral response: serum HDM-specific IgE by ELISA and MCP-1 production. Particulars: asthmatic mice. The text has this: An allergic asthma murine model involving exposure to house dust mites was used. This model comprises a preliminary percutaneous sensitisation challenge phase of Balb/cj mice with a whole house dust mite extract (days 0, 7, 14, and 21), followed by two intranasal stimulations (days 27 and 34) which induced the symptoms of allergy-induced asthma in the test subjects. […] For comparative purposes, the same protocol was used to evaluate the effect of a combined administration of Glisodin with salbutamol, in which case the salbutamol was administered for 30 seconds at a solution concentration of 5 mg/ml as a nebulized aerosol 1 hour before each sensitisation challenge. In allergic asthma, once the antigen has been recognised, clonal selection and proliferation taken place, followed by B lymphocyte differentiation into plasmocytes, the formation of the immune complex between IgE and allergens leads to degranulation of the effecting cells and liberation of chemical mediators such as histamine and MCP-1. In order to evaluate the effect of Glisodin treatment, with respect to initiation of an asthma attack, serum levels of IgE were measured by ELISA for IgE specific to house dust mites and measurements made of the levels of production of MCP-1. […]
On the technique in general: In an ELISA, binding on a coated surface is turned into a signal by an enzyme label.

Assay [2] concerns house dust mite (HDM) allergy induced mice. Put plainly: Respiratory function by flexiVent in response to methacholine, HDM allergy induced mice. The settings on record: asthmatic mice, increasing doses of methacholine. The protocol:
(§1) An allergic asthma murine model involving exposure to house dust mites was used. This model comprises a preliminary percutaneous sensitisation challenge phase of Balb/cj mice with a whole house dust mite extract (days 0, 7, 14, and 21), followed by two intranasal stimulations (days 27 and 34) which induced the symptoms of allergy-induced asthma in the test subjects. The efficacy of the Glisodin formulations was evaluated by daily administration to the mice via force feeding of 5 mg of the Glisodin formulation diluted in water, starting at 24 hours after the first intranasal sensitisation challenge and continuing for 5 consecutive days every week for 5 weeks. For comparative purposes, the same protocol was used to evaluate the effect of a combined administration of Glisodin with salbutamol, in which case the salbutamol was administered for 30 seconds at a solution concentration of 5 mg/ml as a nebulized aerosol 1 hour before each sensitisation challenge.
Respiratory function in the mice was analysed using the flexi Vent™ system available from SciReq and the results illustrated in FIGS. 7 and 8. […] Respiratory function was measured using the flexiVent™ system in response to increasing doses of the broncho-constrictor methacholine. […]
The efficacy of Glisodin was also analysed in combination with salbutamol, a B2-adrenergic receptor agonist having a bronchodilatory and anti-inflammatory activity, as used in the treatment of asthma attacks, the results of which are illustrated in FIG. 8. […] In the charts, CTL or control indicates naïve untreated, untreated asthmatic mice (HDM), asthmatic mice having received salbutamol treatment (Salbutamol), asthmatic mice having received salbutamol and wheat Glisodin (Salbu Wheat) or asthmatic mice having received salbutamol with melon Glisodin (Salbu Melon), all measured by flexi Vent in response to increasing doses of the bronchoconstrictor methacholine. […]

Assay [3] deals with Th1, Th2 and Th17 lymphocyte. Put plainly: Immune response: lung cells restimulated with whole dust mite extract, flow cytometry. The settings on record: lungs of asthmatic mice. The protocol:
as §1
At the end of the treatment protocol, mice lungs were harvested, ground, restimulated with whole dust mite extract and the resulting cell populations analysed using flow cytometry. The results are illustrated in FIG. 10, in which the following cell types were counted: Th1 (CD3+, CD4+, IFNγ+), Th2 (CD3+, CD4+, IL-13+) and Th17 (CD3+, CD4+, IL-17+). […]
Background: Flow cytometry measures light scatter and fluorescence of single cells or particles in a stream.

Assay [4] concerns IL-5, IL-13, IL-17. Put plainly: Cytokine response in supernatant of BAL. Particulars: asthmatic mice. The procedure:
as §1
Cytokines are produced in response to antigens present at the surface of foreign bodies or by molecules considered as foreign by the immune. […] In the present case, Th2 inflammatory pathway cytokines, for example, IL-5 and IL-13, and Th17 cytokines, such as IL-17 were measured in the supernatant of BAL of the various mouse groups, and the results illustrated in FIG. 12, with application of ANOVA analysis of the data using the Tukey test leading to a confidence interval as indicated on the charts established: *=p<0.05, ** p<0.01 and *** p<0.001, in a population n=6 to 8 mice per group.

For assay [5], the system named is cell population from bronchoalveolar lavages (BAL). Put plainly: Inflammatory response: BAL cell population by flow cytometry, HDM allergy induced mice. The settings on record: asthmatic mice. The procedure:
as §1
At the end of the study protocol on mice, bronchoalveolar lavage (BAL) were taken and the cell population analysed using flow cytometry. […] ANOVA analysis of the data using the Tukey test was carried out and a confidence interval as indicated on the charts established: *=p<0.05, ** p<0.01 and *** p<0.001, in a population of n-6 to 8 mice per group.

Assay [6] concerns house dust mite (HDM) allergy induced mice. Put plainly: Tissular degradation: histological analysis of lung samples (eosin and hematoxylin), scoring system. The settings on record: double blind scoring. The protocol:
as §1, with “For comparative purposes, the same protocol was used to evaluate the effect of a combined administration of Glisodin with salbutamol, in which case the salbutamol was administered for 30 seconds at a solution concentration of 5 mg/ml as a nebulized aerosol 1 hour before each sensitisation challenge.” left out
In situ evaluation of inflammation, bronchoconstriction and asthma severity were carried out via histological analysis, through staining of lung samples from the various mouse groups with eosin and hematoxylin, with a population of 6 mice per group, the images being shown at a scale of 100 μm, as illustrated in FIG. 13. The degree of tissular degradation was assessed in a double blind protocol by two independent assessors using a scoring system. […]

In the case of `CC(C)(C)NCC(O)c1ccc(O)c(CO)c1` (stereo not shown) [salbutamol], the “level of MCP-1 produced” value in assay [1] is reported as “reduced”. In assay [1] (serum), the “level of HDM-specific IgE” value is reported as “able to reduce”. In assay [2], the compliance result is “significant effect on the improvement”, the elastance result is on record as “significant effect on the improvement” and the “resistance of the airways” value is reported as “significant effect on the improvement”. In assay [3], the Th1 lymphocyte numbers result is listed as “reduction”. Also, in assay [4], the IL-5 count entry is on record as “effective in reducing”, the IL-17 count entry is recorded as “tendency to decrease” and the “level of IL-13” value was “neither salbutamol nor the various Glisodin formulations tested were able to reduce”. Also, in assay [5] (BAL), the number of eosinophils result is listed as “reduction” and the number of lymphocytes result is reported as “reduction”. Also, the “total number of cells in the BAL and lungs” value in assay [5] (vs untreated asthmatic mice) was “reduction”. Also, the “severity of the asthma (degree of tissular degradation, histological score)” value in assay [6] is “reduction”.

The record behind these values is patent US20250195624A1, “USE OF SUPEROXIDE DISMUTASE FOR THE TREATMENT AND/OR PREVENTION OF ALLERGIC ASTHMA” (ISOCELL S.A.S., priority 2022, published 2025).
